Test results from article PMC8398472, “Anticancer Diiron Vinyliminium Complexes: A Structure–Activity Relationship Study” (Pharmaceutics, 2021).

Columns and labels:
[1] = Octanol–water partition coefficient (shake-flask, UV–Vis); type: physicochemical; settings: 21 °C
Method: • (c) Octanol–water partition coefficients (Log Pow). Partition coefficients (Pow; IUPAC: KD partition constant), defined as Pow = corg/caq, where corg and caq are molar concentrations of the selected compound in the organic and aqueous phase, respectively, were determined by the shake-flask method and UV–Vis measurements. Deionized water and 1-octanol were vigorously stirred for 24 h to enable saturation of both phases, then separated by centrifugation. A stock solution of the selected diiron compound (ca. 2 mg; 2a–c, 3b, 4a–c, 5a, 5c, 6b,c, 7) was prepared by first adding acetone (50 μL, to help solubilization), followed by water-saturated octanol (2.5 mL). The solution was diluted with water-saturated octanol (ca. 1:3 v/v ratio, cFe2 ≈ 10^−4 M, so that 1.5 ≤ A ≤ 2.0 at λmax) and the UV–Vis spectrum was recorded (A^0org). An aliquot of the solution (Vorg = 1.2 mL) was transferred into a test tube and octanol-saturated water (Vorg = Vaq = 1.2 mL) was added. The mixture was vigorously stirred for 15 min at 21 °C and then centrifuged (5000 rpm, 10 min). The UV–Vis spectrum of the organic phase was recorded (A^forg) and the partition coefficient was calculated as Pow = A^forg/(A^0org − A^forg), where A^0org and A^forg are the absorbance in the organic phase before and after partition with the aqueous phase, respectively. An inverse procedure was followed for 3a, 3c, 5b and 6a, starting from a solution of the compound in octanol-saturated water. The partition coefficient was calculated as Pow = (A^0aq − A^faq)/A^faq where A^0aq and A^faq are the absorbance in the aqueous phase before and after partition with the organic phase, respectively. The wavelength of the maximum absorption of each compound (ca. 300 nm) was used for UV–Vis quantitation. The procedure was repeated three times for each sample (from the same stock solution); results are given as mean ± standard deviation.

[2] = target: T1, cytochrome c (Cyt c) (Equus caballus, UniProt P00004); test: ESI-MS interaction with cytochrome c; type: binding; settings: 24 h at 37 °C, protein-to-metal ratio 1:2, pH 6.8
T1 construct: purchased
Method: • (a) Sample preparation. Cytochrome c (Cyt c) was commercially available and used as received; the TrxR dodecapeptide (TrxR-pept) was synthesized as reported in the literature. The stock solutions of the selected iron-based complexes were prepared in DMSO up to a final concentration of 10^−2 M. The stock solution of TrxR-pept was prepared in LC-MS grade water by dissolving the required amount of lyophilized peptide to reach a final concentration of 10^−3 M. The stock solution of Cyt c 10^−3 M was prepared by dissolving the required amount of protein in 2 mM ammonium acetate solution at pH 6.8. In the interaction tests with TrxR-pept, opportune aliquots of each complex and TrxR-pept stock solutions were mixed and diluted with LC-MS grade water to 10^−4 M final concentration and a TrxR-pept/complex ratio of 1:1. For each iron-based complex/Cyt c pair, appropriate aliquots of the respective stock solutions were mixed and subsequently diluted with 2 mM ammonium acetate solution (pH 6.8) to a final protein concentration of 10^−4 M and a protein-to-metal molar ratio of 1:2. All the sample mixtures were incubated for 24 h at 37 °C. Subsequently, opportune dilutions were performed as detailed: • – the TrxR-pept containing solutions were further diluted with LC-MS grade water to a final TrxR-pept concentration of 10^−5 M and added with 0.1% v/v of formic acid just before infusion in the mass spectrometer; • – the protein-containing solutions were diluted with 2 mM ammonium acetate solution (pH 6.8) to a final protein concentration of 10^−6 M and added with 0.1% v/v of formic acid just before infusion. • (b) ESI-MS instrumental parameters. The ESI mass spectra were acquired using a TripleTOF® 5600^+ high-resolution mass spectrometer (Sciex, Framingham, MA, USA), with a DuoSpray® interface operating with an ESI probe. Respective ESI mass spectra were acquired through direct infusion at 7 μL min^−1 flow rate. The ESI source parameters were optimized for each biomolecule and were as follows: for TrxR dodecapeptide positive polarity, ionspray voltage floating 5500 V, temperature 0, ion source gas 1 (GS1) 35 L min^−1; ion source gas 2 (GS2) 0; curtain gas (CUR) 20 L min^−1, declustering potential (DP) 300 V, collision energy (CE) 10 V, range 1070–1600 m/z; for Cyt c positive polarity, ionspray voltage floating 5500 V, temperature 0, ion source gas 1 (GS1) 35 L min^−1; ion source gas 2 (GS2) 0; curtain gas (CUR) 20 L min^−1, declustering potential (DP) 180 V, collision energy (CE) 10 V, range 500–1800 m/z. For acquisition, Analyst TF software 1.7.1 (Sciex, Framingham, MA, USA) was used and deconvoluted spectra were obtained by using the Bio Tool Kit micro-application v.2.2 embedded in PeakView^TM software v.2.2 (Sciex, Framingham, MA, USA).

[3] = Stability in DMSO-d6/D2O or D2O solution at 37 °C for 72 h (1H NMR); type: physicochemical; settings: DMSO-d6/D2O (2:1 v/v), 72 h at 37 °C
Method: • (a) Solubility in D2O. A suspension of the selected diiron compound (3–5 mg) in a D2O solution (ca. 1 mL) containing Me2SO2 (3.36 × 10^−3 M) as internal standard was vigorously stirred at 21 °C for 1.5 h. The resulting saturated solution was filtered over celite, transferred into an NMR tube and then analyzed by ^1H NMR spectroscopy (delay time = 3 s; number of scans = 20). The concentration (solubility) was calculated by the relative integral (related to Cp and/or NMe signals) with respect to Me2SO2 (δ = 3.14 ppm). • (b) Stability in DMSO-d6/D2O solution. The selected diiron compound (ca. 4 mg) was added of 1 mL of D2O (3a,c) or DMSO-d6/D2O (2:1 v/v) mixture (2a,c, 3b, 4a–c, 5a–c, 6a–c, 7), containing Me2SO2 (3.36 × 10^−3 M). The resulting mixture was stirred for 30 min and then filtered over celite; the filtrated solution was transferred into an NMR tube. The sample was analyzed by ^1H NMR (time = 0) and then heated at 37 °C for 72 h. After cooling to room temperature, the solution was separated from a small amount of solid by filtration over celite, and the new ^1H NMR spectrum was recorded (delay time = 3 s; number of scans = 20). In every case, no newly formed organometallic species was detected. The amount of starting material in solution (% with respect to the initial spectrum) was calculated by the relative integral (vs. Cp and/or NMe signals) with respect to Me2SO2 as internal standard.

T1 sequence (P00004 whole entry): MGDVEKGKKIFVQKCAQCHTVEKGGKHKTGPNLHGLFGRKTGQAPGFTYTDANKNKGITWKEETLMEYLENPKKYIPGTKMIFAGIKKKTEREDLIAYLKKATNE

Log Pow [1]	Interaction with Cyt c (ESI-MS) [2]	Stability % (residual % of starting material) [3] [%]	Substance
−0.17 ± 0.01	substantial chemical inertness	95	[Fe2Cp2(CO)(μ-CO){μ-η^1:η^3-C^3(Me)C^2(Me)C^1NMe(Cy)}]CF3SO3 [Compound 4c]
0.56 ± 0.08	substantial chemical inertness	87	[Fe2Cp2(CO)(μ-CO){μ-η^1:η^3-C^3(Me)C^2(Me)C^1N(CH2Ph)2}]CF3SO3 [Compound 2c]
−0.09 ± 0.01	substantial chemical inertness	68	[Fe2Cp2(CO)(μ-CO){μ-η^1:η^3-C^3(Ph)C^2HC^1NMe(CH2CH = CH2)}]CF3SO3 [Compound 3b]
−0.43 ± 0.01	substantial chemical inertness	90	[Fe2Cp2(CO)(μ-CO){μ-η^1:η^3-C^3(Me)C^2(Me)C^1NMe(CH2Ph)}]CF3SO3 [Compound 5b]
0.38 ± 0.02	substantial chemical inertness	66	[Fe2Cp2(CO)(μ-CO){μ-η^1:η^3-C^3(Me)C^2(Me)C^1NMe(2-naphthyl)}]CF3SO3 [Compound 7]
−0.29 ± 0.03	substantial chemical inertness	95	[Fe2Cp2(CO)(μ-CO){μ-η^1:η^3-C^3(Me)C^2HC^1NMe(Cy)}]CF3SO3 [Compound 4a]
0.37 ± 0.04	substantial chemical inertness	76	[Fe2Cp2(CO)(μ-CO){μ-η^1:η^3-C^3(Ph)C^2HC^1NMe(4-C6H4OMe)}]CF3SO3 [Compound 6b]
−0.21 ± 0.01	substantial chemical inertness	86	[Fe2Cp2(CO)(μ-CO){μ-η^1:η^3-C^3(Me)C^2(Me)C^1NMe(4-C6H4OMe)}]CF3SO3 [Compound 6c]
